This assay concerns CAPAN-1 xenografts. The assay can be described thus: CAPAN-1 xenografts, BRCA 2 deficient (−/−) compared with not deficient (+/+): single dose PLX038A or irinotecan, tumor volume. It is filed as in vivo, mice. The conditions noted are these: irinotecan 137 μg/kg single i.p.; FIGS. 4B vs 4C.

Description: Female NCr nude mice (N CrTac:NCr-Foxnt1^nu; ˜6-7 weeks old) from Taconic Bioscience (Cambridge City, Ind.) were housed at the UCSF Preclinical Therapeutics Core vivarium (San Francisco, Calif.). All animal studies were carried out in accordance with UCSF Institutional Animal Care and Use Committee. Tumor xenografts were established by subcutaneous injection with MX-1 tumor cells (2×10^6 cells in 100 μl of serum free medium mixed 1:1 with Matrigel) into the right flank of female NCr nude mice.
Groups (N=4-5/group) were dosed when the group average reached 100-200 mm^3 in size. […] For groups receiving the combination, daily BMN673 dosing began on the same day (FIG. 3A) or after a 4-day delay (FIG. 3B) after dosing PLX038A. Tumor volumes (caliper measurement: 0.5×(length×width^2)) and body weights were measured twice weekly. When vehicle control tumors reached ˜3000 mm^3 in size, mice were treated with the combination of a single dose of PLX038A (15 μmol/kg) and daily BMN673 (0.4 μmol/kg) combination with no delay between dosing (FIG. 3A).
MX-1 cells are BRCA 1 deficient and CAPAN-1 cells are supplied as either BRCA 2 deficient (−/−) or not deficient (+/+).

For `CCc1c2c(nc3ccc(OC(=O)N4CCC(N5CCCCC5)CC4)cc13)-c1cc3c(c(=O)n1C2)COC(=O)[C@]3(O)CC` [irinotecan], the “effectiveness in BRCA 2 deficient vs non-deficient cells, irinotecan” value is given as “enhanced”.

Source of the values: patent publication US11730836B2, “Synergistic cancer treatment” (priority 2018, dated 2023).
